In BindingDB's records for doi:10.1021/acschembio.6b00677 (Pfizer, 2016):
pKi: −log10 of the molar value.

Columns and labels:
Assay in all cases: TR-FRET Competition Assay
Conditions in all cases: pH 7.5
[1] = target: T1, Tyrosine-protein kinase Tec (Homo sapiens, UniProt P42680)
T1 sequence (P42680 whole entry): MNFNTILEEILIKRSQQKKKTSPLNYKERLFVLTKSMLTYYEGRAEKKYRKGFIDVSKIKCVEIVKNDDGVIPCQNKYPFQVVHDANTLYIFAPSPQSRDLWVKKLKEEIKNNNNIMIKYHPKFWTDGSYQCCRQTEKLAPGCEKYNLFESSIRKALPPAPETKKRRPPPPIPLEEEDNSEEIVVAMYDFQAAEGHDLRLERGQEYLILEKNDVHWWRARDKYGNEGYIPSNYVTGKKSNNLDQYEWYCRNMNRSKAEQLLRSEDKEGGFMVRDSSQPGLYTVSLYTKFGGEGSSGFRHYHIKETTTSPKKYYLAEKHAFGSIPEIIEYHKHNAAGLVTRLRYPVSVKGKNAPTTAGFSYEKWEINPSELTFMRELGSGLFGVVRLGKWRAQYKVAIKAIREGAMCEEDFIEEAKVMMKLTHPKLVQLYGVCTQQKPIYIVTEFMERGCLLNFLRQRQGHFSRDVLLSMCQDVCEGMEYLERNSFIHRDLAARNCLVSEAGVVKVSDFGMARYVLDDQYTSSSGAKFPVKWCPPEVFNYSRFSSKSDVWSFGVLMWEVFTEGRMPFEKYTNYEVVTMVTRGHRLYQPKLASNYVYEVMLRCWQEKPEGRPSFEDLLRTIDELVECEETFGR
Procedure: (§1) Assay buffer was 20 mM HEPES, pH 7.5, 10 mM MgCl2, 0.01% BSA, 1 mM DTT, 0.0005% Tween 20, and 2% DMSO. […] The assays were read using an EnVi

[2] = target: T2, Tyrosine-protein kinase TXK (Homo sapiens, UniProt P42681)
T2 sequence (P42681 whole entry): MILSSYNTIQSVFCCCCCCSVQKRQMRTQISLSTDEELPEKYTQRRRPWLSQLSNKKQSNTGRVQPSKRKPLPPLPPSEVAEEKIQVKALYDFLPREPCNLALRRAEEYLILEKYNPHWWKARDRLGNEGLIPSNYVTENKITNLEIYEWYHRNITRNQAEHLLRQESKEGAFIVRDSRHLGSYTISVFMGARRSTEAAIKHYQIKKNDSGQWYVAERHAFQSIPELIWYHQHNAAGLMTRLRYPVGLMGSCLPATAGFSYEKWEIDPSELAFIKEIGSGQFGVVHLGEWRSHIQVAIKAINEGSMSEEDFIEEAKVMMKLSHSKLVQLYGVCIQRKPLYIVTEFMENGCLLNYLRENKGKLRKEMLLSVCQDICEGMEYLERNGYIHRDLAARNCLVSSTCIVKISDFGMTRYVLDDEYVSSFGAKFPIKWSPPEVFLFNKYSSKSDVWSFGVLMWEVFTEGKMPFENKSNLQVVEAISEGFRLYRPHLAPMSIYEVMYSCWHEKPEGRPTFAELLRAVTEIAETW
Procedure: as §1

[3] = target: Tyrosine-protein kinase Blk (Homo sapiens, UniProt P51451)
Procedure: as §1

Sequence of Tyrosine-protein kinase Blk (P51451 whole entry): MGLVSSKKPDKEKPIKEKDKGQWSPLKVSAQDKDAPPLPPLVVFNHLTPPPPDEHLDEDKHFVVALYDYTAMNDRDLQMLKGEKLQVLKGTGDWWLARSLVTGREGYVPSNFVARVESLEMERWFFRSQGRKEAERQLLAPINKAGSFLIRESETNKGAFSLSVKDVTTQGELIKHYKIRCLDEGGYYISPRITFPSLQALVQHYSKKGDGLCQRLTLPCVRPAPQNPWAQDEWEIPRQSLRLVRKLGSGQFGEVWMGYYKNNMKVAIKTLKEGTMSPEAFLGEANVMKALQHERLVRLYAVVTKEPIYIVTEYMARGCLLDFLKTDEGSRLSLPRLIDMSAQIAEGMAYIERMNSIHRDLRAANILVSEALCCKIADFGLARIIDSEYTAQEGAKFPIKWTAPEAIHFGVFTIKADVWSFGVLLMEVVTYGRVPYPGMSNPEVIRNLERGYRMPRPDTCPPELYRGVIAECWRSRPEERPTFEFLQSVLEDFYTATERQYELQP

For `C=CC(=O)N1C[C@H](Nc2ncnc3[nH]ccc23)CC[C@@H]1C` [PF-06651600], the pKi [1] was 9.17, the pKi [2] was 9.88 and the pKi [3] was 7.49.
